Here are results for 4 molecules from article PMC7337048 (Journal of Structural Biology: X, 2019).

One assay addresses Human Arginase-2. The following applies: cited from earlier work; for IC50: Enzyme assay at pH 7.4.
The target in assay [1] is T1, human Arginase-1 (Homo sapiens, UniProt P05089).
T1 sequence (P05089 1-322): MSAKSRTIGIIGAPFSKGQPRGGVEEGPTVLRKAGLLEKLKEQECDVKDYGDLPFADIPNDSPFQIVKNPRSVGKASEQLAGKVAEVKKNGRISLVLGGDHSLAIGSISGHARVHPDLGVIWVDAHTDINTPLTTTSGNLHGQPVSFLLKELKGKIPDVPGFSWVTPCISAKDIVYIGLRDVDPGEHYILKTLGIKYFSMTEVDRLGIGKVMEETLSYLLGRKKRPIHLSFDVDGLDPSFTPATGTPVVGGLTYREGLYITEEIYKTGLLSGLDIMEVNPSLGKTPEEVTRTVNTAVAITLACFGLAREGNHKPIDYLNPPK
Nature of the assay: Apparent Michaelis-Menten parameters, colorimetric urea assay. In kind it is biochemical. The following applies: substrate; for Km: read-out: Michaelis constant (KM). As for the experimental part: Arginase-1 activity was monitored by measurement of the rate of urea formation in a classic colorimetric assay ([Jung et al., 1975], [Zawada et al., 2009]). All components of the assay were diluted in Arginase reaction buffer 1 (8 mM Na2HPO4, 2 mM KH2PO4, pH 7.4, 137 mM NaCl, 2.7 mM KCl, and 0.05% Tween-20) or Arginase reaction buffer 2 (10 mM glycine, pH 9.5, 137 mM NaCl, 2.7 mM KCl, and 0.05% Tween-20). Compounds were either dissolved and diluted in DMSO, followed by further dilution in reaction buffer, or dissolved in MilliQ water (MQ) and diluted in reaction buffer to the desired concentrations. In a clear 384-well plate (cat. no. 781101; Greiner), 10 µL diluted compound and 10 µL of 3 nM (pH 9.5) or 15 nM (pH 7.4) Arginase-1 were combined and incubated for 90 min at room temperature. Then, 10 µL of 15 mM (pH 9.5) or 7.5 mM (pH 7.4) L-arginine (cat. no. 105000250; Acros Organics) was added to the plate, followed by incubation for 30 min. A 1:1 mixture of reagent A (10 mM o-phthaldialdehyde, 0.4% polyoxyethylene (23) lauryl ether (w/v) and 1.8 M sulfuric acid) and reagent B (1.3 mM primaquine diphosphate, 0.4% polyoxyethylene (23) lauryl ether (w/v), 130 mM boric acid and 3.6 M sulfuric acid) was prepared. The enzymatic reaction was stopped by addition of 30 μL of the reagent A + B mixture. After incubation with the reagent mixture for 60 min (pH 9.5) or 120 min (pH 7.4), the absorbance was measured at 450 nm using the EnVision 2104 Multilabel Plate Reader (PerkinElmer, Waltham, MA) (excitation filter P450). The final concentrations of Arginase-1 and L-arginine in the assay were respectively 1 nM and 5 mM at pH 9.5, and 5 nM and 2.5 mM at pH 7.4.

A further assay relates to Arginase-1. The arrangement: method as in Stone et al., 2010, Alarcón et al., 2006, Tsui et al., 2009. The following applies: differences in pH and temperature; ref Stone et al., 2010, Alarcón et al., 2006, Tsui et al., 2009; cited from earlier work.
Assay [2] has as its target T1, human Arginase-1. Nature of the assay: Arginase-1 colorimetric urea assay (inhibition). In kind it is biochemical. The following applies: for IC50: read-out: IC50 (nM) (95% CI); for Ki: Cheng-Prusoff equation, read-out: Ki (nM) (95% CI). As for the experimental part: Arginase-1 activity was monitored by measurement of the rate of urea formation in a classic colorimetric assay ([Jung et al., 1975], [Zawada et al., 2009]). […] Compounds were either dissolved and diluted in DMSO, followed by further dilution in reaction buffer, or dissolved in MilliQ water (MQ) and diluted in reaction buffer to the desired concentrations. […] The enzymatic reaction was stopped by addition of 30 μL of the reagent A + B mixture. […] The reported values were measured in quadruplicate in four independent experiments. Dose-response curves were fitted with a four-parameter logistic regression using XLFit (IDBS, Guildford, UK) to determine IC50 values. Graphs for the manuscript were prepared using Prism (GraphPad Software, San Diego, CA).

For assay [3], the target named is T1, human Arginase-1. Nature of the assay: Thermal shift assay. In kind it is binding. The following applies: 50 μM inhibitor. As for the experimental part:
In a 96-well PCR plate (cat no. 652260; Greiner), 10 μL of the enzyme solution was mixed with 5 μL of 200 μM compound dissolved in MQ. […] The plate was sealed with Microseal B Adhesive Sealer (cat. no. MSB1001; Bio-Rad, Hercules, CA) and placed in a CFX96 Real-Time Detection System (Bio-Rad). The temperature was increased from 20 to 95 °C in increments of 0.5 °C during which the SYPRO Orange fluorescence was measured. The resulting datasets were first truncated to contain only the data points that lie between the minimal and maximal fluorescence signals. The remaining data were then fitted to the sigmoidal five-parameter equation (Eq. (2)) ([Schulz et al., 2013]), in which Fmin and Fmax are respectively the minimum and maximum fluorescent signals of the melting transition, T is the temperature, a is the hill slope and c is the asymmetric factor. The melting temperature was then determined as the point of inflection of the melting curve (Eq. […] The reported values were measured in quadruplicate in four independent experiments.(2) […]

Assay [4] deals with T1, human Arginase-1. Nature of the assay: Surface plasmon resonance binding kinetics. The following applies: for τ (target residence time): τ = 1/kd. As for the experimental part:
Binding kinetics of the inhibitors were determined by SPR using a Biacore T200 (GE Healthcare). […] The inhibitors were diluted in running buffer from a stock solution in MQ and were injected in an increasing concentration range of 0.1, 0.316, 1, 3.16 and 10 µM. […] The compound response was subtracted with both the reference channel response and the blank injection.
(Surface plasmon resonance follows binding to a sensor surface in real time, without labels.)

The target in assay [5] is T1, human Arginase-1. The following applies: Enzyme assay at pH 7.4; racemic ABH assumed; ref Golebiowski et al., 2013, Van Zandt et al., 2013, Golebiowski et al., 2013, Van Zandt et al., 2019; cited from earlier work.
Where [6] appears, read: Enzyme assay at pH 7.5, ref Colleluori and Ash, 2001.

Several values for one entry are separate records, joined by “and”; a condition that tells them apart may be missing. Equal entries are not always repeated. Where two headings read alike, the source gives them in different places.

Consider `C[C@H](N)C(=O)N1C[C@H](CCCB(O)O)[C@](N)(C(=O)O)C1` [CB-1158, (3R,4S)-3-amino-1-[(2S)-2-aminopropanoyl]-4-(3-boronopropyl)pyrrolidine-3-carboxylic acid], for which the IC50 (commonly the point on the concentration scale where inhibition reaches its midpoint) on Human Arginase-2 (ref Oberlies et al., 2009) was 296 nM.
Take `N=C(N)NCCC[C@H](N)C(=O)O` [L-arginine]: at human Arginase-1 [1] (pH 7.4), the “catalytic rate constant (kcat)” value turned out to be 57 s⁻¹ and the Km (usually the concentration of substrate that gives half-maximal velocity) was found to be 2.3 mM. Moreover, at human Arginase-1 [1] (pH 9.5), the “catalytic rate constant (kcat)” value was 460 s⁻¹ and the Michaelis constant (Km) stood at 4.9 mM. Moreover, in the assay on Arginase-1, the Michaelis constant (Km) is 1.9 mM and 2.3 mM and 1.5 mM; the kcat (commonly the number of substrate molecules converted per active site and unit of time at saturation) is 300 s⁻¹ and 190 s⁻¹.
With `N[C@@H](CCCCB(O)O)C(=O)O` [ABH, (2S)-2-amino-6-boronohexanoic acid], the IC50 was 184 nM on human Arginase-1 [2] (pH 7.4, 5 nM Arginase-1, 2.5 mM L-arginine); 22 nM on human Arginase-1 [2] (pH 9.5, 1 nM Arginase-1, 5 mM L-arginine); 1450 to 1550 nM at human Arginase-1 [5]; 1920 to 2550 nM at Human Arginase-2 (racemic ABH assumed, ref Golebiowski et al., 2013, Van Zandt et al., 2013, Golebiowski et al., 2013, Van Zandt et al., 2019). The Ki (commonly a dissociation constant, usually derived from enzyme kinetics or from competition with a known ligand) is 88 nM on human Arginase-1 [2] (pH 7.4); 11 nM on human Arginase-1 [2] (pH 9.5); 250 nM at Human Arginase-2 (setting [6]); 8.5 nM at Human Arginase-2 (Enzyme assay at pH 9.5, ref Colleluori and Ash, 2001). Besides, the “decrease in the Ki on increase of the pH from 7.4 to 9.5” value at human Arginase-1 [2] (pH 7.4 versus pH 9.5) is reported as 8 fold. Further, the Tm (as a rule, the temperature at which the thermal transition is half complete) on human Arginase-1 [3] (pH 7.4) came out at 77.4 °C; at human Arginase-1 [3] (pH 9.5) it was 80.9 °C. Besides, the ΔTm (commonly the shift of the melting midpoint relative to a reference) at 50 µM at human Arginase-1 [3] (pH 7.4) was determined as 4.5 °C; on human Arginase-1 [3] (pH 9.5) it was 3.5 °C. Further, the Kd (commonly the equilibrium constant for the complex coming apart) at human Arginase-1 [4] (pH 7.4) worked out at 797 nM; at human Arginase-1 [4] (pH 9.5), 27 nM. Besides, the ka was found to be 12000 M⁻¹ s⁻¹ on human Arginase-1 [4] (pH 7.4) and 5100 M⁻¹ s⁻¹ on human Arginase-1 [4] (pH 9.5). Besides, the figures for the kd on human Arginase-1 [4] (pH 7.4) and on human Arginase-1 [4] (pH 9.5) were 0.0099 s⁻¹ and 0.00014 s⁻¹, respectively. The “log(ka)” value at human Arginase-1 [4] (pH 7.4) is on record as 4.09; on human Arginase-1 [4] (pH 9.5) it was 3.71. Further, the “log(kd)” value at human Arginase-1 [4] (pH 7.4) is reported as −2.00; on human Arginase-1 [4] (pH 9.5), −3.86. In addition, the “τ (target residence time)” value on human Arginase-1 [4] (pH 7.4) is on record as 100 s; at human Arginase-1 [4] (pH 9.5), 7200 s. Also, the “potency lower at pH 7.5 compared to pH 9.5” value in the assay with Human Arginase-2 (pH 7.5 versus pH 9.5, ref Colleluori and Ash, 2001) is about 30 times.
For `N=C(NO)NCC[C@H](N)C(=O)O` [nor-NOHA, N^ω-hydroxy-nor-L-arginine], the ΔTm at 50 µM at human Arginase-1 [3] (pH 7.4) was found to be 4.8 °C; on human Arginase-1 [3] (pH 9.5) it was 4.7 °C. Further, the IC50 at Human Arginase-2 (ref Van Zandt et al., 2019) was 1260 nM. Moreover, the inhibition constant Ki at Human Arginase-2 (setting [6]) is 51 nM.
